Results reported in a melting point compilation (Tetko et al.; mined from patent text by program, amines drawn as free bases though some values may be those of a salt).

melting point [°C]	SMILES
120	CN(C)C(=O)c1ccc(S(=O)(=O)c2ccc(NC(=O)[C@@](C)(O)C(F)(F)F)c(Cl)c2)cc1
172 to 174	CCC(=O)N[C@@H](C)C(=O)N1CCC[C@H]1C(=O)NC1CCCCC1
70 to 72	O=C(Cc1ccc(O)cc1)OCc1ccccc1
137 to 138	COc1ccc(Cc2c(NC(C)C(C)(C)C)c(=O)c2=O)cc1 (centres undefined)
149 to 150	O=[N+]([O-])c1cn2c(n1)O[C@@H](CN1CCN(Cc3ccc(C(F)(F)F)cc3)CC1)C2
216 to 217	Oc1ccc(-c2cnccn2)cc1
126 to 127	O=C(c1ccc(O)cc1)c1ccc(OCCOCCO)cc1
121 to 122	CC(C)(C)OC(=O)Cc1nn(Cc2nc3cc(C(F)(F)F)ccc3s2)c(=O)c2cccnc12
87.5 to 89	CCOC(=O)c1cc(-c2ccc(Cl)cc2)ns1
194 to 195	Nc1cc(C(F)(F)F)cc2nc3c4ccccc4c4ccccc4c3nc12
156 to 157	O=S1(=O)NCN(CCF)c2cc(Cl)c(Cl)cc21
130 to 131	Fc1ccc(-c2cc(N3CCN(c4ccc(F)cc4)CC3)nc3c2CCCCCC3)cc1
125 to 132	Cc1onc(NS(=O)(=O)c2ccccc2-c2ccc(-c3ncccn3)cc2CN2CCC(C)(C)C2=O)c1C
148 to 150	N#Cc1ccc(N2CCC(CO)CC2)cc1
183 to 184	O=C1c2ccccc2C(=O)N1CC(=O)N1c2ccccc2N(Cc2ccccc2)C(=O)CC1C=Cc1ccccc1 (centres undefined)
194 to 195	Cc1c(C#N)sc2nc(-c3ccncc3)nc(N(C)CCO)c12
52 to 53	CC(C)(C)OC(=O)N1OC2C=CC1C2 (centres undefined)
201 to 202	COc1ccc(S(=O)(=O)Nc2cnccc2Nc2ccccc2)cc1
133	Clc1nc(-c2ccc(Br)cc2)nc(Cl)c1-c1ccccc1
208 to 211	Cc1ccc2c3c(c(Cl)nc2c1)C(=O)c1ccccc1-3
200 to 202	CCOc1cc(C(CC#N)N2Cc3c(Cl)ccc(NC(=O)C4CC4)c3C2=O)ccc1OC (centres undefined)
78 to 81	Fc1ccc2c(c1)C(=C1CCNCC1)c1ncccc1CC2
226 to 228	Nc1ncccc1-c1nc2cccnc2n1-c1ccc(CNC(=O)c2ccccc2)cc1
126 to 127	CCc1ccc(C(C)(C)C)c(O)c1C(=O)Nc1ccc(S(=O)(=O)C(F)(F)F)cc1Cl

melting point [°C]	SMILES
146 to 148	COc1cc2cc(OCc3ccccc3)cnc2cc1OC
104 to 106	Cc1cc(C(=O)N2Cc3cccn3Cc3ccccc32)cc(C)c1-n1c(C)ccc1C
143 to 145	CCOc1ccc(C(CC(=O)OC)N2C(=O)c3ccc(N)cc3C2=O)cc1OCC (centres undefined)
118 to 120	CC(C#N)Oc1cccc(C=Cc2ccc3ccc(Cl)cc3n2)c1 (centres undefined)
65 to 68	CCC(C)c1cc(C=O)cc(C(C)CC)c1O (centres undefined)
202	CC(=O)Nc1ccc(Oc2ncc(Cl)cn2)cc1
253	CCCN1C(=O)N(c2ccc(N3CCN(c4ccc(O)cc4)CC3)cc2)NC1C (centres undefined)
202 to 208	CC1(C)CS(=O)(=O)c2ccccc2C1c1cncnc1S(C)(=O)=O (centres undefined)
125 to 133	COc1ccc(-c2cc(COS(C)(=O)=O)c(=O)n(Cc3ccc(F)cc3)n2)cc1F
258	Cc1ccc(C(=O)Nc2ccc3ccc(Cl)nc3n2)nn1
195 to 197	COc1ccc2[nH]nc(N3CCN(CCCn4c(=O)[nH]c5ccccc54)CC3)c2c1
108 to 112	CCCc1c(OCCCCCC(=O)c2c(C)c(C)c(OC)c(OC)c2C)ccc(C(=O)O)c1O
64 to 67	CSc1nc2c(NCc3ccccc3)nc(NCCCO)nc2n1C(C)C
176 to 177	OC(c1ccccc1)(c1ncc[nH]1)c1ccc(Cl)cc1Cl (centres undefined)
88.1 to 92	C[C@@H]1CN(c2c(C=O)cc(Br)c(F)c2F)C[C@H](C)O1
264 to 266	NC(=O)c1c(N)oc2ccccc2c1=O
133 to 135	CCOC(=O)C1=C(C)NC(COCc2cccnc2)=C(C(=O)OCC)C1c1ccccc1[N+](=O)[O-] (centres undefined)
168 to 169	Cc1ccc(CNC(=O)C2=C(C(=O)Nc3cc(OC4CCCC4)c(Cl)cc3F)CCCC2)cc1
166 to 168	COc1ccc(CNc2nc(N(C)CCO)ncc2C(=O)c2cc(OC)c(OC)c(OC)c2)cc1Cl
38 to 39	CN(C)CCSc1nc2ccccc2n1CCc1ccccc1
203 to 205	O=C(Nc1ccccc1O)C1CCc2nc[nH]c2C1 (centres undefined)
223 to 225	Cc1oc(-c2ccccc2)nc1CCOc1ccc(S(=O)(=O)Nc2cc(Cl)ccc2C(=O)O)cc1
190	O=[N+]([O-])c1cc2cc(Cl)ccc2nc1Cl
122 to 124	NC(=O)C1=CCCNC1

melting point [°C]	SMILES
198	CC(C)CN(C)c1cc2c(cc1C(F)(F)F)NC(=O)CC(c1cccc(-n3cncn3)c1)=N2
265 to 267	CNc1ncc2c(=O)[nH]c(-c3ccccc3OC)nc2n1
179 to 181	O=C(O)C1CC(=O)N(Cc2ccccc2)C1c1c(Cl)cccc1Cl (centres undefined)
87 to 89	COCCNC(=O)c1ccc(C(=O)NS(=O)(=O)c2ccc(CCNC(=O)CCc3ccc(OC)c(OC)c3)cc2)cn1
193 to 197	COc1ccc2nc(SC(C#N)c3ncc(C)c(OC)c3C)[nH]c2c1 (centres undefined)
71.4 to 73.8	COC(=O)c1cc(-c2ccc(F)c(C)c2)nn(CC(C)C)c1=O
117 to 119	CCC(=O)NCCC1CCc2c(F)cc3nn(C)cc3c21 (centres undefined)
134	CCOP(=O)(OCC)C1(P(=O)(OCC)OCC)CC(C(=O)c2ccccc2)=NN1
83 to 84	CCCCCCC(CO)c1nc([N+](=O)[O-])c[nH]1 (centres undefined)
211 to 213	O=C(c1[nH]c2ccccc2c1Sc1ccccn1)N1CCCC1
120 to 121	CCCOc1c(I)cc(C(=O)CCC(=O)c2cc(OC)c(OC)c(OC)c2)cc1OC
113 to 115	COc1cc(OC)nc(Oc2cccc(OC(F)F)c2C(=O)O)n1
198 to 205	COc1cc(N2CCC(N3CCN(C)CC3)CC2)ccc1Nc1ncc2ccc(-c3ccccc3S(=O)(=O)N(C)C)n2n1
81	COC(=O)c1ccc(Br)c(S)c1
93 to 94	CCCCCCCCCC#Cc1ccnc(C(=O)O)c1
110	O=C(Cc1ccncn1)c1ccc(Cl)cc1
84.9 to 85	CC(=O)Oc1ccc(/C=C/c2cc(C)cc(C)c2)cc1
290	Nc1ccc(O)c2c1C(=O)c1c(N)ccc(O)c1C2=O
176 to 178	COc1cc2ncnc(N3CCC(=O)CC3)c2cc1OC
245 to 247	O=C1CCC(c2ccc(N=Cc3ccc(C(F)(F)F)cc3)cc2)=NN1
89 to 90	Cc1ccc(S(=O)(=O)NCCOS(=O)(=O)c2ccc(C)cc2)cc1
110 to 112	C=C(C)CCOc1c(-c2ccc(S(C)(=O)=O)cc2)cnn(-c2cccc(Cl)c2)c1=O
71 to 72	CCCc1nn(-c2ccc(C(F)(F)F)cn2)cc1CCCC=O
186 to 189	CC(C)(C)NC(=O)C1CCC2C3CNC4=CC(=O)CCC4(C)C3CCC12C (centres undefined)

melting point [°C]	SMILES
145 to 146	O=C(O)c1cc(OCCCc2cc(-c3ccc(C(F)(F)F)cc3)no2)nn1-c1ccccc1
79 to 81	CCCCCN(C(=O)Cl)c1ccc2c(c1)C(C)(C)CCC2(C)C
207 to 209	Cc1cc(OC(F)F)ccc1NC(=O)c1cccc(I)c1C(=O)NC(C)C
246 to 247	CN(C(=O)c1ccccc1C(c1ccc(O)cc1)c1ccc(O)cc1)c1ccccc1
176 to 177	O=C(O)Cn1cccc(OCc2ccccc2)c1=O
110 to 113	CC(=O)Nc1cccc(-c2ccc(OC[C@H](O)CCc3cccnc3)cc2)c1
101 to 102	CCc1oc(C2CCCCC2)nc1CC(=O)O
177 to 179	COc1ccc(-c2nc3sccn3c2/C=C/C(=O)c2cc(OC)c(OC)c(OC)c2)cc1
132 to 134	COC(=O)/C(=N/NC(N)=O)c1ccc(OCCOc2ccc3ccccc3c2)cc1
243 to 245	CCn1ncc2c3noc(-c4ccc(C(F)(F)F)cc4)c3cnc21
162 to 163	CCOC(=O)c1cn(-c2cccc(Oc3ccc([N+](=O)[O-])cc3)c2)cn1
209 to 211	CCN[C@H]1CCN(c2c(-c3ccccc3)c(C)c(C#N)c3nc(C4CC4)oc23)C1
149 to 150	COc1ccc(-c2nc(O)c(C)s2)cc1
229 to 231	CSc1ncc2cc(-c3c(Cl)cccc3Cl)c(=NC(C)=O)n(C)c2n1
186 to 188	C#CCc1c(C)nc2c(OCc3c(C)cccc3NC(=O)C(C)O)cccn12 (centres undefined)
185 to 187	CCOC(=O)c1ccc(NC(=O)Cn2ccnc2)cc1
241 to 243	C=CCc1cc(O)c(CC=C)c(C=NO)c1O
215	O=C(c1cccc(Cl)c1)c1sc2cc(O)ccc2c1-c1ccccc1
125 to 127	Cc1cccc(-c2n[nH]cc2-c2ccc(F)c(-c3c[nH]c(C(O)CO)n3)c2)n1 (centres undefined)
130 to 133	COC(=O)c1ccccc1CN1CCN(c2nc(C)c(C(=O)NCc3ccccc3)s2)C1=O
69 to 74	OCCCCCCOc1ccccc1
129 to 130	CNC(=S)SCCC(=O)N1CCC[C@H]1C(=O)OC(C)(C)C

SMILES	melting point [°C]
CCCCCCCCCCCC[C@]1(C)OO[C@@H]2C[C@H]1CC(=O)[C@@H]2C	35
CCCCCCCCCCc1ccc(C(=O)O[C@@H]2CC[C@H](NC(=O)[C@H](OC)[C@H](O)[C@@H](O)[C@H](O)/C=C/C(C)(C)C)C(=O)NC2)cc1	60 to 64
CNC(=O)Oc1ccc(NC(=O)C(C)Oc2ccccc2)c(C)c1 (centres undefined)	123 to 125
C1=C(c2ccccc2)CCN(Cc2nc3ccccc3[nH]2)C1	253 to 255
O=C1c2c(Cl)cccc2-n2cnc(-c3noc(C(F)(F)F)n3)c2[C@@H]2CCCN12	220 to 221
